Test results published in patent US20100311714A1, “1H-IMIDAZO[4,5-c]QUINOLINONE COMPOUNDS” (priority 2009, published 2010).
≈ marks a conversion by molar mass, not a printed value.

Legend:
[1] = High-throughput equilibrium solubility at pH 6.8; format: physicochemical; settings: pH 6.8, aqueous buffer, thermodynamic from solid; read-out: HT-Eq Sol/pH 6.8
Text: (§1) The physicochemical properties of relevance for the absorption of the compound, such as the solubility and the membrane permeability, especially at a pH close to neutral pH can be measured using the procedure as described by L. ZHOU et al. in JOURNAL OF PHARMACEUTICAL SCIENCES, VOL. 96, NO. 11, p. 3052-3071 (2007) for the solubility at pH 6.8 and the procedure as described by F. Wohnsland and B. Faller in Journal of Medicinal Chemistry Vol 44, p. 923-930 (2001) for the Parallel Artificial Membrane Permeability Assay (PAMPA) at pH 6.8.

[2] = test system: PKB Ser473 phosphorylation in Rat1-myr-HA-p110 beta cells; assay: Reverse protein array, PKB Ser473 phosphorylation in Rat1-myr-HA-p110 beta cells; format: cell-based; settings: Rattus norvegicus, 0.5 h, 30 minutes compound incubation, read-out: p-PKB/IC50_beta
Method: (§2) No. 15140-114) and 10 μg/ml Puromycine (Sigma, cat. No. P9620).
(§3) The Rat1-myr-HA-p110 alpha, beta and delta cells were trypsinized and counted with a CASY TT cell counter (Schärfe System GmbH, Reutlingen Germany). The cells were diluted in fresh DMEM complete medium and 3×10^4 cells/150 μl/well seeded in 96-well TPP-tissue culture plates (TPP, cat. No. 92096). The plates were incubated at 37° C. and 5% CO2 under humidified condition for at least 20 h. Compound of formula I working solutions were prepared freshly as serial 8 step dilutions (vol/vol) in DMSO on the day of the experiment. The working solutions were further diluted 1/500 in cell culture medium to get final compound concentrations of 10, 3.333, 1.111, 0.370, 0.123, 0.041, 0.014, 0.005 μM. The final DMSO concentration was kept constant at 0.2%. cell culture medium containing 0.2% DMSO was used as vehicle treatment control. Post incubation, the cells were treated with the serial compound dilution. 50 μl of the compound medium mixture was added to the wells containing cells and 150 μl DMEM medium and incubated for 30 minutes (37° C., 5% CO2). After 30 minutes of incubation, the medium mixture was quickly removed by aspiration. For cell lysis, a mixture of 10% CLB1 CeLyA lysis buffer (Zeptosens, cat. No. 9000), 90% CSBL1 CeLyA spotting buffer (Zeptosens, cat. No. 9020) was freshly prepared and supplemented with 1% Octyl β-D-glucopyranoside (SIGMA, cat. No. 08001-5G) and 1 mM Na-Orthovanadate (Sigma, cat No. S-6508). 50 μl of the described lysis buffer mix was added to each well, followed by 10 minutes of incubation on ice. After an additional freeze-thaw cycle, another 50 μl of the lysis buffer mix without Octyl β-D-glucopyranoside was added to the wells, and 90 μl of the cell lysate was transferred to a 96-well V-bottom plate (Fisher Scientific, cat. No. 6067Y), followed by a centrifugation step (5 min, 1500 rpm at 19° C. in an Eppendorf 5810R centrifuge) to remove the unlysed cell debris.
(§4) The samples were spotted onto ZeptoMARK® PWG protein microarray chips (Zeptosens, Witterswil, Switzerland) with the piezoelectric microdispense-based, non-contact Nano-Plotter 2.1 (GeSiM, Grosserkmannsdorf, Germany). Each sample was spotted at 4 different sample concentrations (d1=100%, d2=75%, d3=50%, d4=25%) by diluting the cell lysate with the corresponding volume of lysis buffer mix. After spotting the ZeptoMARK® protein microarrays, the chips are incubated for 1 hour at 37° C. To receive a uniform blocking result, the CeLyA blocking buffer BB1 (Zeptosens, cat. No. 9040) is administered via an ultrasonic nebulizer. After 20 minutes of blocking the chips are extensively rinsed with deionized water (Milli-Q quality, 18MΩ×cm) and dried in a nitrogen air flow.
(§5) After the sample spotting and blocking procedure, the ZeptoMARK® chips were transferred to the ZeptoCARRIER (Zeptosens, cat. No. 1100), whose six flow cells individually address the six arrays on a chip, and washed twice with 200 μl CAB1 CeLyA assay buffer (Zeptosens, cat. No. 9032). The assay buffer was then aspirated and each compartment incubated with 100 μl of the primary target antibody (pAkt Ser473; CST#9271) at RT over night. Post incubation, the primary antibody was removed, the arrays washed twice with CAB1 buffer and further incubated with 100 μl of Alexa fluor 647-labeled anti rabbit IgG Fab fragments (Invitrogen; #Z25305) for one hour at RT in the dark. After incubation, the arrays were washed twice with 200 μl CAB1 buffer. The fluorescence of the target-bound Fab fragments is read out on the ZeptoReader (Zeptosens, Witterswil, Switzerland) using a laser (excitation wavelength 635 nm) and a CCD camera. The fluorescence signal was assessed with exposure times of 1, 3, 5 and 10 seconds, depending on the intensity of the signal. The resulting four images taken per array are stored as 16-bit TIF files. […]

[3] = test system: PKB Ser473 phosphorylation in Rat1-myr-HA-p110 delta cells; assay: Reverse protein array, PKB Ser473 phosphorylation in Rat1-myr-HA-p110 delta cells; format: cell-based; settings: Rattus norvegicus, 0.5 h, 30 minutes compound incubation, read-out: p-PKB/IC50_delta
Method: as §2, §3, §4, §5

[4] = test system: PKB Ser473 phosphorylation in Rat1-myr-HA-p110 alpha cells; assay: Reverse protein array, PKB Ser473 phosphorylation in Rat1-myr-HA-p110 alpha cells; format: cell-based; settings: Rattus norvegicus, 0.5 h, 30 minutes compound incubation, read-out: p-PKB/IC50_alpha
Method: as §2, §3, §4, §5

[5] = Parallel Artificial Membrane Permeability Assay (PAMPA) at pH 6.8; format: physicochemical
Text: as §1
The following permeability log Pe was measured for compound of formula (I) as exemplified below: […]

[6] = test system: S6 Ribosomal Protein phosphorylation Ser235/236 in TSC1 null mouse embryo fibroblast (MEF) cells; assay: Reverse protein array, S6 Ribosomal Protein phosphorylation in TSC1 null MEF cells; format: cell-based; settings: 1 h, TSC1-/- MEFs, 60 minutes, read-out: p-S6 IC50
Method: TSC1−/− MEFs cells (provided by D. Kwiatkowski), were cultivated in Dulbecco's modified Eagle's medium (DMEM high Glucose, GIBCO, cat. No. 41956-039) supplemented with 10% heat inactivated fetal bovine calf serum (Amimed, cat. No. 2-01F16-I), 1% L-Glutamine (Invitrogen, cat. No. 25030-02), 1% penicillin-streptomycin (GIBCO, cat. No. 15140-114) at 37° C. in a 5% CO2 and 95% relative humidity atmosphere incubator.
The TSC1−/− cells were trypsinized and counted with a CASY TT cell counter (Schärfe System GmbH, Reutlingen Germany). The cells were diluted in fresh DMEM complete medium and 0.75×10^4 cells/150 μl/well seeded in 96-well TPP-tissue culture plates (TPP, cat. No. 92096). The plates were incubated at 37° C. and 5% CO2 under humidified condition for at least 20 h. Working solutions were prepared freshly as serial 8 step dilutions (vol/vol) in DMSO on the day of the experiment. The working solutions were further diluted 1/5000 in cell culture medium to get final compound concentrations of […]. The final DMSO concentration was kept constant at 0.02%. cell culture medium containing 0.02% DMSO was used as vehicle treatment control. Post incubation, the cells were treated with the serial compound dilution. 50 μl of the compound medium mixture was added to the wells containing cells and 150 μl DMEM medium and incubated for 60 minutes (37° C., 5% CO2). After 60 minutes of incubation, the medium mixture was quickly removed by aspiration. For cell lysis, a mixture of 10% CLB1 CeLyA lysis buffer (Zeptosens, cat. No. 9000), 90% CSBL1 CeLyA spotting buffer (Zeptosens, cat. No. 9020) was freshly prepared and supplemented with 1% Octyl β-D-glucopyranoside (SIGMA, cat. No. 08001-5G) and 1 mM Na-Orthovanadate (Sigma, cat No. S-6508). 50 μl of the described lysis buffer mix was added to each well, followed by 10 minutes of incubation on ice. After an additional freeze-thaw cycle, another 50 μl of the lysis buffer mix without Octyl β-D-glucopyranoside was added to the wells, and 90 μl of the cell lysate was transferred to a 96-well V-bottom plate (Fisher Scientific, cat. No. 6067Y), followed by a centrifugation step (5 min, 1500 rpm at 19° C. in an Eppendorf 5810R centrifuge) to remove the unlysed cell debris.
The spotting of the chips follows the previous described method.
The signal detection and the data analysis follows the previous described method using the pS6 ribosomal protein Ser235/236 (CST, cat. No. #2211) as a primary antibody.

Structure (SMILES)	solubility thermodynamic [1] [µg/mL]	IC50 [2] [nM]	IC50 [3] [nM]	IC50 [4] [nM]	HT-perm/logPe pH6.8 [5]	HT-Perm logPe pH6.8 [5]	IC50 [6] [nM]
COCCOc1cncc(-c2ccc3ncc4c(c3c2)n(-c2cccnc2C)c(=O)n4C)c1 [Example 2.17, 8-[5-(2-Methoxy-ethoxy)-pyridin-3-yl]-3-methyl-1-(2-methyl-pyridin-3-yl)-1,3-dihydro-imidazo[4,5-c]quinolin-2-one]	> 441	491	803	85.6	−4.8		
CNc1ncc(-c2ccc3ncc4c(c3c2)n(-c2ccc(OC)nc2Cl)c(=O)n4C)cn1 [Example 18.2, 1-(2-Chloro-6-methoxy-pyridin-3-yl)-3-methyl-8-(2-methylamino-pyrimidin-5-yl)-1,3-dihydro-imidazo[4,5-c]quinolin-2-one]	3 (≈ 6.7 µM)	7	12.2	7.8		−3.5	1

More lines, in order of falling IC50 [2], values ahead:

solubility thermodynamic [1] [µg/mL]	IC50 [2] [nM]	IC50 [3] [nM]	IC50 [4] [nM]	HT-perm/logPe pH6.8 [5]	HT-Perm logPe pH6.8 [5]	Structure (SMILES)	IC50 [6] [nM]
2 (≈ 4.87 µM)	300	894	167	−3.8		Cc1ccncc1-n1c(=O)n(C)c2cnc3ccc(-c4ccc(N(C)C)nc4)cc3c21 [Example 4.4, 8-(6-Dimethylamino-pyridin-3-yl)-3-methyl-1-(4-methyl-pyridin-3-yl)-1,3-dihydro-imidazo[4,5-c]quinolin-2-one]	
14 (≈ 34.4 µM)	74.1	109	58.5	−5.0		Cc1cccnc1-n1c(=O)n(C)c2cnc3ccc(-c4cnc5[nH]ccc5c4)cc3c21 [Example 3.2, 3-Methyl-1-(3-methyl-pyridin-2-yl)-8-(1H-pyrrolo[2,3-b]pyridin-5-yl)-1,3-dihydro-imidazo[4,5-c]quinolin-2-one]	
21 (≈ 40.3 µM)	9.39	52.9	6.5			COc1nc(N2CCNCC2)ccc1-n1c(=O)n(C)c2cnc3ccc(-c4cnc5c(ccn5C)c4)cc3c21 [Example 9.3, 1-(2-Methoxy-6-piperazin-1-yl-pyridin-3-yl)-3-methyl-8-(1-methyl-1H-pyrrolo[2,3-b]pyridin-5-yl)-1,3-dihydro-imidazo[4,5-c]quinolin-2-one]	
